Experimental data taken from patent US10053462B2, “P2X7 modulators” (Jansssen Pharmaceutica NV, priority 2013, dated 2018).
Where two headings read alike, the source gives them in different places.

Biological target: P2X7 (Homo sapiens (Human), UniProt Q99572)
Assay: P2X7 antagonism in human peripheral blood mononuclear cells (PBMCs), IL-1β release
Type: cell-based
Settings: LPS 30 ng/ml + Bz-ATP 0.5 mM; for remaining activity at 10 µM: read-out: PBMC 10 μM (% control); for PBMC 10 μM (% control): Table 1, 10 μM compound
Experimental: P2X7 Antagonism in Human Peripheral Blood Mononuclear Cells (PBMCs) and Human Whole Blood.
Human blood was collected using a blood donor program. PBMCs were isolated from blood using a Ficoll density gradient technique. Briefly, blood was laid on Ficoll solution and centrifuged at RT for 20 minutes at 2000 rpm. The buffy layer (between red blood cells and plasma) was carefully collected by aspiration, washed with PBS and centrifuged again at 1500 rpm for 15 minutes. The resulting cell pellet was washed and plated on 96 well-plates for experiments. For the Human Whole Blood experiments, 150 μl of human blood was platted on 96 well-plates. Lipopolysaccharide (LPS) (30 ng/ml) was added to each well and incubated for 1 hour. Test compounds were then added and incubated for 30 minutes. The P2X7 agonist, 2′(3′)-O-(4-benzoylbenzoyl) adenosine 5′-triphosphate (Bz-ATP) was then added at a final concentration of 0.5 mM (PBMC) or 1 mM (blood). Cells were incubated for an additional 1.5 hours. At that point, supernatant was collected and stored for IL-1β assay using manufacturer's protocol for enzyme-linked immunosorbent assay (ELISA). Data was expressed as percent control, where control is defined as the difference in IL-1β release in LPS+Bz-ATP samples and LPS only samples. Data was plotted as response (% control) versus concentration to generate IC50 values. […] Data are analyzed and graphed on Graphpad Prism 5. For analysis, each concentration point is averaged from triplicate values and the averaged values are plotted on Graphpad Prism.

[1] = P2X7, Table 2 (additional runs), 10 μM compound

P2X7, sequence (Q99572 whole entry): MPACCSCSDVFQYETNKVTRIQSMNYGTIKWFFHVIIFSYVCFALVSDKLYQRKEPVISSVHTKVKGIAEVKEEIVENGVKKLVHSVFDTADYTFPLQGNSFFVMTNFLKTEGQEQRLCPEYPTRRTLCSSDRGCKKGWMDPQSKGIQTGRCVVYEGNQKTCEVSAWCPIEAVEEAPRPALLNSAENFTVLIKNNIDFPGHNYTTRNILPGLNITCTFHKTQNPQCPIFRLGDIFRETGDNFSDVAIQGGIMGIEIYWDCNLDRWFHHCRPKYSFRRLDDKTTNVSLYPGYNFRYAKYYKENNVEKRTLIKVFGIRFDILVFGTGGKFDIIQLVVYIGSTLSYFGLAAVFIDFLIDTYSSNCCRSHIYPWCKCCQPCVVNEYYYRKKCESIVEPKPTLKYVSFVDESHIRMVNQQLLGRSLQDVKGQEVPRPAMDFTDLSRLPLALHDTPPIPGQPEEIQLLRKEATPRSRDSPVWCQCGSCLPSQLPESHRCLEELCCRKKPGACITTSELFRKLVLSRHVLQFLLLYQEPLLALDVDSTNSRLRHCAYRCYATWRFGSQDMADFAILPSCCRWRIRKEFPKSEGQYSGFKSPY

| Compound | remaining activity at 10 µM (P2X7, Table 1, 10 μM compound) | remaining activity at 10 µM [1] | PBMC 10 μM (% control) |
| --- | --- | --- | --- |
| O=C(c1cccc(C(F)(F)F)c1Cl)N1[C@H]2CCC[C@@H]1c1nnc(-c3ccc(F)cc3)n1C2 (stereo in doubt) [Example 5, (6S*,10R*)-11-{[2-Chloro-3-(trifluoromethyl)phenyl]carbonyl}-3-(4-fluorophenyl)-5,6,7,8,9,10-hexahydro-6,10-epimino[1,2,4]triazolo[4,3-a]azocine] | -4.4% | -4.4% |  |
| O=C(c1cccc(C(F)(F)F)c1Cl)N1[C@@H]2CCC[C@H]1c1nnc(-c3cccnn3)n1C2 (stereo in doubt) [Example 195, (6R,10S)-11-{[2-Chloro-3-(trifluoromethyl)phenyl]carbonyl}-3-pyridazin-3-yl-5,6,7,8,9,10-hexahydro-6,10-epimino[1,2,4]triazolo[4,3-a]azocine] |  | 11.2% |  |
| O=C(c1cccc(C(F)(F)F)c1Cl)N1[C@H]2CC[C@@H]1c1nnc(-c3ncccn3)n1C2 [Example 46, (6S,9R)-10-{[2-Chloro-3-(trifluoromethyl)phenyl]carbonyl}-3-pyrimidin-2-yl-6,7,8,9-tetrahydro-5H-6,9-epimino[1,2,4]triazolo[4,3-a]azepine] |  | 10% | 10.0 % control |
| Cc1cccc(-c2nnc3n2C[C@@H]2CCC[C@H]3N2C(=O)c2cccc(C(F)(F)F)c2Cl)n1 (stereo in doubt) [Example 23, (6S*,10R*)-11-{[2-Chloro-3-(trifluoromethyl)phenyl]carbonyl}-3-(6-methylpyridin-2-yl)-5,6,7,8,9,10-hexahydro-6,10-epimino[1,2,4]triazolo[4,3-a]azocine] | 8% | 8% |  |
| O=C(c1ccnc(C(F)(F)F)c1F)N1[C@@H]2CCC[C@H]1c1nnc(-c3ccccn3)n1C2 (stereo in doubt) [Example 198, (6R,10S)-11-{[3-Fluoro-2-(trifluoromethyl)pyridin-4-yl]carbonyl}-3-pyridin-2-yl-5,6,7,8,9,10-hexahydro-6,10-epimino[1,2,4]triazolo[4,3-a]azocine] |  | 4.1% |  |
| Cc1c(C(=O)N2[C@H]3CC[C@@H]2c2nnc(-c4cscn4)n2C3)cccc1C(F)(F)F [Example 53, (6S,9R)-10-{[2-Methyl-3-(trifluoromethyl)phenyl]carbonyl}-3-(1,3-thiazol-4-yl)-6,7,8,9-tetrahydro-5H-6,9-epimino[1,2,4]triazolo[4,3-a]azepine] |  | 4% | 4.0 % control |
| Cc1ncsc1-c1nnc2n1C[C@@H]1CC[C@H]2N1C(=O)c1cccc(C(F)(F)F)c1Cl [Example 59, (6S,9R)-10-{[2-Chloro-3-(trifluoromethyl)phenyl]carbonyl}-3-(4-methyl-1,3-thiazol-5-yl)-6,7,8,9-tetrahydro-5H-6,9-epimino[1,2,4]triazolo[4,3-a]azepine] |  | 0.6% | 0.6 % control |
| O=C(c1cccc(C(F)(F)F)c1Cl)N1[C@@H]2CCC[C@H]1c1nnc(-c3ncc(F)cn3)n1C2 (stereo in doubt) [Example 18, (6R*,10S*)-11-{[2-Chloro-3-(trifluoromethyl)phenyl]carbonyl}-3-(5-fluoropyrimidin-2-yl)-5,6,7,8,9,10-hexahydro-6,10-epimino[1,2,4]triazolo[4,3-a]azocine] | -9% | -9% |  |
| O=C(c1cccc(C(F)(F)F)c1Cl)N1[C@@H]2CCC[C@H]1c1nnc(-c3ccc(F)cn3)n1C2 (stereo in doubt) [Example 12, (6R*,10S*)-11-{[2-Chloro-3-(trifluoromethyl)phenyl]carbonyl}-3-(5-fluoropyridin-2-yl)-5,6,7,8,9,10-hexahydro-6,10-epimino[1,2,4]triazolo[4,3-a]azocine] | -0.8% | 3.6% |  |
| COc1ccnc(-c2nnc3n2C[C@@H]2CCC[C@H]3N2C(=O)c2cccc(C(F)(F)F)c2Cl)c1 (stereo in doubt) [Example 26, (6S*,10R*)-11-{[2-Chloro-3-(trifluoromethyl)phenyl]carbonyl}-3-(4-methoxypyridin-2-yl)-5,6,7,8,9,10-hexahydro-6,10-epimino[1,2,4]triazolo[4,3-a]azocine] | 9.2% | 9.2% |  |
| Cc1c(C(=O)N2[C@@H]3CCC[C@H]2c2nnc(-c4ccccn4)n2C3)cccc1C(F)(F)F (stereo in doubt) [Example 201, (6R,10S)-11-{[2-Methyl-3-(trifluoromethyl)phenyl]carbonyl}-3-pyridin-2-yl-5,6,7,8,9,10-hexahydro-6,10-epimino[1,2,4]triazolo[4,3-a]azocine] |  | -4% |  |
